The values below are quoted from earlier work in patent US20070036839A1, “Phosphorylated glucomannane polysaccharides containing 1-6 and 1-2 linkages increase weight gain in poultry” (priority 2005, published 2007).

For this data set, the system named is macrophages. The conditions noted are these: single low dose by intramuscular injection; cited from earlier work.

In the case of Acemannan [ACM 1], the activation of macrophages result is “systemic immuno-modulated activation of macrophages”.
